Results: US7763615B2, “Ecteinascidin analogs for use as antitumour agents” (priority 2001, dated 2010)

What was measured:
[1] = test system: H9c2 (2-1), normal rat cardiac muscle cells; details: 24 h
[2] = test system: AML-12, normal mouse liver cells; details: 24 h
Protocol: (§2) In order to assess the cytotoxicity of the drugs to normal cells, we used 96 well plates plated at a density of 5000 cells per well (except for the FDC-P1 which were plated at 12,000 cells per well) with normal cell lines (ATCC, Table 1) maintained as per the directions of the ATCC: AML-12, normal mouse liver cells; NRK-52E, normal rat kidney cells; L8, normal rat skeletal muscle cells; FDC-P1, normal mouse myelogeous stem cells; and H9c2 (2-1), normal rat cardiac muscle cells. The cells in each plate were permitted to settle overnight before adding the test drug.
(§3) To each well (100 μl medium) 10 μl of drug in media was added at varying concentrations (1×10-10-0.01 mg/ml final concentration) and further incubated overnight at 37° C. with 5% CO2. After 24 h the following assays were performed. All experiments were repeated at least 3 times and were assayed in duplicate.
(§4) MTS assay (CellTiter 96 aqueous) was performed according to the manufacturer's (Promega) directions (for all cell types). Cell viability (mitochondrial activity) is determined via enzymatic conversion of the formazan substrate.

[3] = test system: L8, normal rat skeletal muscle cells; details: 24 h
MCF = assay: cells; assay type: cell-based; details: Homo sapiens
Outline: (§1)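 SRB colorimetric growth assay: 5×10^3 cells/well, 18 h attachment, 48 h continuous compound exposure at 10–10^−8 μg/ml in DMSO/EtOH/PBS. TCA fixation, SRB stain, OD 490 nm; triplicate wells, GI, TGI and LC derived.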

HT29 = assay: cells; assay type: cell-based; details: Homo sapiens, HT-29, 48 h
Outline: as §1

MEL-28 = assay: cells; assay type: cell-based; details: Homo sapiens, SK-MEL-28, 48 h
Outline: as §1

DU145 = assay: cells; assay type: cell-based; details: Homo sapiens, DU-145, 48 h
Outline: as §1

A498 = assay: cells; assay type: cell-based; details: Homo sapiens
Outline: as §1

A549 = assay: cells; assay type: cell-based; details: Homo sapiens, A549, 48 h
Outline: as §1

SW-620 = assay: cells; assay type: cell-based; details: Homo sapiens
Outline: as §1

MB231 = assay: cells; assay type: cell-based; details: Homo sapiens
Outline: as §1

[4] = test system: FDC-P1, normal mouse myelogeous stem cells; details: 24 h
Protocol: as §2, §3, §4

[5] = test system: NRK-52E, normal rat kidney cells; details: 24 h

Q: How did the Heart [1] turn out when `COc1c(C)cc2c(c1O)[C@@H]1C3[C@@H]4SC[C@]5(NCCc6c5[nH]c5ccccc65)C(=O)COC[C@@H](c5c6c(c(C)c(OC(C)=O)c54)OCO6)N3[C@@H](O)[C@H](C2)N1C` (some centres unmarked) [Compound 26] was run?
A: 6.43E−07

Q: What about the Liver [2] of the same compound?
A: 1.06E−06

Q: What about the Skeletal [3] of the same compound?
A: 3.71E−08

Q: What about the CC50 (MCF; 48 h, read-out: LC50) of the same compound?
A: 11.9 nM

Q: What about the GI50 (MCF; MCF, 48 hours exposure, SRB) of the same compound?
A: 2.65 nM

Q: And the IC (TGI) (MCF; MCF, 48 hours exposure, SRB, read-out: TGI)?
A: 5.3 nM

Q: What about the GI50 (HT29; HT29, 48 hours exposure, SRB) of the same compound?
A: 3.97 nM

Q: What about the IC (TGI) (HT29; HT29, 48 hours exposure, SRB) of the same compound?
A: 7.95 nM

Q: And the CC50 (HT29; read-out: LC50, HT29, 48 hours exposure, SRB)?
A: 13.2 nM

Q: What about the GI50 (MEL-28; MEL-28, 48 hours exposure, SRB) of the same compound?
A: 2.65 nM

Q: What about the IC (TGI) (MEL-28; MEL-28, 48 hours exposure, SRB) of the same compound?
A: 5.3 nM

Q: And the CC50 (MEL-28; read-out: LC50, MEL-28, 48 hours exposure, SRB)?
A: 10.6 nM

Q: What about the GI50 (DU145; DU145, 48 hours exposure, SRB) of the same compound?
A: 2.65 nM

Q: And the IC (TGI) (DU145; DU145, 48 hours exposure, SRB)?
A: 3.97 nM

Q: What about the CC50 (DU145; read-out: LC50, DU145, 48 hours exposure, SRB) of the same compound?
A: 10.6 nM

Q: What about the CC50 (A498; A498, 48 h, read-out: LC50) of the same compound?
A: 26.5 nM

Q: What about the GI50 (A498; A498, 48 hours exposure, SRB) of the same compound?
A: 2.65 nM

Q: And the IC (TGI) (A498; A498, 48 hours exposure, SRB)?
A: 6.62 nM

Q: What about the GI50 (A549; A549, 48 hours exposure, SRB, read-out: GI50) of the same compound?
A: 2.65 nM

Q: And the IC (TGI) (A549; A549, 48 hours exposure, SRB, read-out: TGI)?
A: 3.97 nM

Q: What about the CC50 (A549; read-out: LC50, A549, 48 hours exposure, SRB) of the same compound?
A: 13.2 nM

Q: And the CC50 (SW-620; SW-620, 48 h, read-out: LC50)?
A: 79.5 nM

Q: And the IC (TGI) (SW-620; SW-620, 48 hours exposure, SRB)?
A: 7.95 nM

Q: What about the GI50 (SW-620; SW-620, 48 hours exposure, SRB, read-out: GI50) of the same compound?
A: 2.65 nM

Q: And the CC50 (MB231; 48 h, read-out: LC50)?
A: 13.2 nM

Q: And the GI50 (MB231; MB231, 48 hours exposure, SRB)?
A: 2.65 nM

Q: What about the IC (TGI) (MB231; MB231, 48 hours exposure, SRB, read-out: TGI) of the same compound?
A: 5.3 nM

Q: What about the Myelo [4] of the same compound?
A: 1.03E−07

Q: And the Kidney [5]?
A: 4.60E−08
